# Legend:
# IL-8 from CFTE cells = assay: Hypersecretion of IL-8 from CFTE cells; details: qualitative
# cat [1] = details: intravenous administration, Merck Index; cited from earlier work
# NFκB = details: 1 μM concentration; variety of cultured cancer cells; cited from earlier work
# cat [2] = assay: LD50, intravenous administration to the cat (Merck Index)
Structure (SMILES),hypersecretion of IL-8 from CFTE cells (IL-8 from CFTE cells),LD50 (cat [1]) [mg/kg],solubility (Solubility in ethanol),TNFα-dependent activation of NFκB (NFκB),LD-50-defined toxicity (concentration) (cat [2]; as restated) [µM],concentration corresponding to LD50 (cat [2]; assuming body weight is all water and uniform distribution) [nM]
"CCCn1c(=O)c2[nH]c(C3CCCC3)nc2n(CCC)c1=O [CPX, 1,3-Dipropyl-8-Cyclopentyl xanthine]",suppressed,–,–,–,–,–
CO[C@H]1C[C@H](O[C@H]2CC[C@@]3(C)[C@H](CC[C@@H]4[C@@H]3CC[C@]3(C)[C@@H](C5=CC(=O)OC5)[C@@H](OC(C)=O)C[C@]43O)C2)O[C@@H](C)[C@@H]1O [Compound I],–,0.3,soluble in ethanol,suppresses,≥ 0.6,600
